The values that follow are results of earlier work, collected in patent US20170348252A1, “Preparation and Use of Ketamine Derivatives and Ketamine Modifiers in the Treatment of Pain” (priority 2016, published 2017).

The conditions of this data set: relative to thiopental; from Anirudda Pai et al. 2007.

In the case of `CNC1(c2ccccc2Cl)CCCCC1=O` (racemic) [Ketamine, 2-(2-chlorophenyl)-2-methylamino cyclohexanone], the lipid solubility is listed as 5-10 times that of thiopental.
